Reference: article PMC6576746, “Rational discovery of dual-indication multi-target PDE/Kinase inhibitor for precision anti-cancer therapy using structural systems pharmacology” (PLoS Computational Biology, 2019)

Legend:
Experiment in all cases: cells
Design in all cases: species or system panel of human cancer cell lines; Eurofins OncoPanel proliferation; nuclei count by high-content fluorescence imaging, 10-point dose response
SNU-423 = settings: Homo sapiens, SNU-423, 72 h, cell count, 3 days
In short: (§1)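 Cells in RPMI 1640/10% FBS or special medium received compound the day after seeding, with a time-zero plate; 3-day incubation at 37°C, 5% CO2. Nuclei imaged by fluorescence microscopy; 10 half-log doses from 100 μM, 0.1% DMSO. EC50, IC50, GI50 and activity area (0–10) from curve fits.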

MCF7 = settings: Homo sapiens, MCF7, 72 h, cell count, 3 days
In short: as §1

TT = settings: Homo sapiens, TT, 72 h, cell count, 3 days
In short: as §1

Hs 895.T = settings: 72 h, cell count, 3 days
In short: as §1

Capan-2 = settings: Homo sapiens, Capan-2, 72 h, cell count, 3 days
In short: as §1

SUP-T1 = settings: Homo sapiens, SUP-T1, 72 h, cell count, 3 days
In short: as §1

IM-9 = settings: Homo sapiens, IM-9, 72 h, cell count, 3 days
In short: as §1

A498 = settings: Homo sapiens, A498, 72 h, cell count, 3 days
In short: as §1

KLE = settings: Homo sapiens, KLE, 72 h, cell count, 3 days
In short: as §1

Jurkat = settings: Homo sapiens, Jurkat, 72 h, cell count, 3 days
In short: as §1

HT1376 = settings: Homo sapiens, HT-1376, 72 h, cell count, 3 days
In short: as §1

DK-MG = settings: 72 h, cell count, 3 days
In short: as §1

AGS = settings: Homo sapiens, AGS, 72 h, cell count, 3 days
In short: as §1

MEG01 = settings: Homo sapiens, MEG-01, 72 h, cell count, 3 days
In short: as §1

[1] = 50% of maximum possible response

- IC50 (SNU-423; [1]): 19.2 µM
- GI50 (SNU-423; corrected for time zero): 16.5 µM
- EC50 (SNU-423; curve inflection point): 14.8 µM
- IC50 (MCF7; [1]): 32.4 µM
- GI50 (MCF7; corrected for time zero): 19 µM
- EC50 (MCF7; curve inflection point): 16.1 µM
- IC50 (Jurkat; [1]): 22.1 µM
- GI50 (Jurkat; corrected for time zero): 18.2 µM
- EC50 (Jurkat; curve inflection point): 22.1 µM
- IC50 (HT1376; [1]): > 100 µM
- GI50 (HT1376; corrected for time zero): > 100 µM
- EC50 (HT1376; curve inflection point): > 100 µM
- IC50 (AGS; [1]): 4.21 µM
- GI50 (AGS; corrected for time zero): 3.91 µM
- EC50 (AGS; curve inflection point): 3.93 µM
Structure (SMILES): C[C@@H]1CC(=O)NN=C1c1ccc(NN=C(C#N)C#N)cc1 [levosimendan]
- IC50 (TT; [1]): > 100 µM
- GI50 (TT; corrected for time zero): 14.3 µM
- EC50 (TT; curve inflection point): > 100 µM
- IC50 (Hs 895.T; [1]): > 100 µM
- GI50 (Hs 895.T; corrected for time zero): 32.8 µM
- EC50 (Hs 895.T; curve inflection point): > 100 µM
- IC50 (Capan-2; [1]): 49.7 µM
- GI50 (Capan-2; corrected for time zero): 42.3 µM
- EC50 (Capan-2; curve inflection point): 49.7 µM
- IC50 (SUP-T1; [1]): 15.6 µM
- GI50 (SUP-T1; corrected for time zero): 11 µM
- EC50 (SUP-T1; curve inflection point): 15.6 µM
- IC50 (IM-9; [1]): 41 µM
- GI50 (IM-9; corrected for time zero): 35.5 µM
- EC50 (IM-9; curve inflection point): 41 µM
- IC50 (A498; [1]): 81.2 µM
- GI50 (A498; corrected for time zero): 60.8 µM
- EC50 (A498; curve inflection point): 81.2 µM
- IC50 (KLE; [1]): 85.4 µM
- GI50 (KLE; corrected for time zero): 20.8 µM
- EC50 (KLE; curve inflection point): 29.6 µM
- IC50 (DK-MG; [1]): > 100 µM
- GI50 (DK-MG; corrected for time zero): 49.4 µM
- EC50 (DK-MG; curve inflection point): > 100 µM
- IC50 (MEG01; [1]): 83.2 µM
- GI50 (MEG01; corrected for time zero): 58.5 µM
- EC50 (MEG01; curve inflection point): 83.2 µM
